Reference: patent publication US20150118229A1, “JAK1 SELECTIVE INHIBITOR AND USES THEREOF” (ABBVIE INC., priority 2013, published 2015)
Several values for one entry are separate records, joined by “and”; a condition that tells them apart may be missing. Identical values can stand only once. Entries after “also recorded” stand apart in the source; their conditions may differ. Like-named read-outs stand apart in the source and are kept apart here.

Tests used:
[1] = target: CYP3A4 (midazolam/testosterone) (Homo sapiens, UniProt P08684); assay: CYP inhibition in human liver microsomes, CYP3A4
[2] = target: Rock2 (Homo sapiens, UniProt O75116); assay: Kinase panel, Rock2; format: biochemical
[3] = target: OCT2 (Homo sapiens, UniProt O15244); assay: Transporter inhibition, OCT2; conditions: up to 30 μM
[4] = target: CYP2C8 (Homo sapiens, UniProt P10632); assay: CYP inhibition in human liver microsomes, CYP2C8
[5] = tested on: IL-6 signaling; assay: Whole blood assay IL-6 pSTAT3 CD14+; format: cell-based
[6] = target: P-gp (Homo sapiens, UniProt P08183); assay: P-gp inhibition; format: in vitro ADME
[7] = Pharmacokinetics in monkey; format: in vivo; conditions: for Vd: read-out: Vss
[8] = Metabolic stability in hepatocytes, rat; format: in vitro ADME; conditions: read-out: intrinsic clearance in hepatocytes (converted)
[9] = in vivo; conditions: both, rat, po
Experimental: The 4-week rat study was conducted at dose levels of 0, 10, 50, 100, and 200 mg/kg/day by daily oral administration (gavage). […] The cause of death was not determined for animals that died.

[10] = Plasma protein binding, monkey; format: in vitro ADME
[11] = Definitive embryofetal development toxicity study in rabbits; format: in vivo, New Zealand White rabbits; conditions: rabbit
Text: One additional group of 20 time-mated females served as the control and received the vehicle, 0.2% hydroxypropyl methylcellulose (HPMC, high viscosity) in deionized water.

[12] = tested on: CYP1A2; assay: CYP induction (mRNA) in human hepatocytes, CYP1A2; format: in vitro ADME; conditions: 1, 3, and 10 μM
[13] = target: CYP2B6 (Homo sapiens, UniProt P20813); assay: CYP inhibition in human liver microsomes, CYP2B6
[14] = target: MATEK (Homo sapiens, UniProt Q86VL8); assay: Transporter inhibition, MATEK
[15] = Pharmacokinetics in rat; format: in vivo; conditions: for clearance: read-out: CLp (converted); for Vd: read-out: Vss
[16] = Definitive embryofetal development toxicity study in rats; format: in vivo; conditions: rat
Text: One additional group of 25 time-mated females served as the control and received the vehicle, 0.2% hydroxypropyl methylcellulose (HPMC, high viscosity) in deionized water.

[17] = tested on: CYP2B6; assay: CYP induction (mRNA) in human hepatocytes, CYP2B6; format: in vitro ADME
[18] = target: OATP1B3 (Homo sapiens, UniProt Q9NPD5); assay: Transporter inhibition, OATP1B3; conditions: up to 30 μM
[19] = target: OCT1 (Homo sapiens, UniProt O15245); assay: Transporter inhibition, OCT1; conditions: up to 30 μM
[20] = Metabolic stability in liver microsomes, human; format: in vitro ADME; conditions: read-out: intrinsic clearance in liver microsomes (converted)
[21] = tested on: EPO (Erythroid CFU); assay: Erythroid bone marrow colony forming assay (EPO); format: cell-based; conditions: read-out: Colony Formation EPO (Erythroid CFU)
[22] = Metabolic stability in hepatocytes, monkey; format: in vitro ADME; conditions: read-out: intrinsic clearance in hepatocytes (converted)
[23] = plasma, oral 1 mg/kg single dose, mean (SD)
[24] = plasma, oral 10 mg/kg single dose, mean (SD)
[25] = female, Sprague-Dawley, rat, plasma, po, 50 mg/kg/day, rat F, oral 50 mg/kg/day, Day 1, mean (SD)
[26] = male, Sprague-Dawley, rat, plasma, po, 10 mg/kg/day, rat M, oral 10 mg/kg/day, Day 1, mean (SD)
[27] = male, Sprague-Dawley, rat, plasma, po, 100 mg/kg/day, rat M, oral 100 mg/kg/day, Day 1, mean (SD)
[28] = plasma, rat, IV 0.3 mg/kg single dose
[29] = plasma, rat, IV 0.3 mg/kg single dose, mean (SD)
[30] = plasma, rat, IV 3 mg/kg single dose
[31] = plasma, rat, IV 3 mg/kg single dose, mean (SD)
[32] = rat, plasma, po, 3 mg/kg, oral 3 mg/kg single dose, mean (SD)

Sequence of CYP2C8 (P10632 whole entry): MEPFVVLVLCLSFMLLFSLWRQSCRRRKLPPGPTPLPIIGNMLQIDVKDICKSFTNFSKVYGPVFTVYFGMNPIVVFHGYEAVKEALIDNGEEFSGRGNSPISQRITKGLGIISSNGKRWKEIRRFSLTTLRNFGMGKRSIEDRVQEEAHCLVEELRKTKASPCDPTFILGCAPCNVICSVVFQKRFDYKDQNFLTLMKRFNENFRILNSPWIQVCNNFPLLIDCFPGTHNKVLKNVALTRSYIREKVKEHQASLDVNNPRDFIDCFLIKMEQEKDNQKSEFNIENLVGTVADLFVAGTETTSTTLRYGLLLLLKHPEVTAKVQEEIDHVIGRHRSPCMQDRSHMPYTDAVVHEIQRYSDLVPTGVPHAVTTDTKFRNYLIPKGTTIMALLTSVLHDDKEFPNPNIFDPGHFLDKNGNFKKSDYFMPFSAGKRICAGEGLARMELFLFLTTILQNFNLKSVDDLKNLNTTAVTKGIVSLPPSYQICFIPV
Sequence of CYP2B6 (Homo sapiens, UniProt P20813) (P20813 whole entry): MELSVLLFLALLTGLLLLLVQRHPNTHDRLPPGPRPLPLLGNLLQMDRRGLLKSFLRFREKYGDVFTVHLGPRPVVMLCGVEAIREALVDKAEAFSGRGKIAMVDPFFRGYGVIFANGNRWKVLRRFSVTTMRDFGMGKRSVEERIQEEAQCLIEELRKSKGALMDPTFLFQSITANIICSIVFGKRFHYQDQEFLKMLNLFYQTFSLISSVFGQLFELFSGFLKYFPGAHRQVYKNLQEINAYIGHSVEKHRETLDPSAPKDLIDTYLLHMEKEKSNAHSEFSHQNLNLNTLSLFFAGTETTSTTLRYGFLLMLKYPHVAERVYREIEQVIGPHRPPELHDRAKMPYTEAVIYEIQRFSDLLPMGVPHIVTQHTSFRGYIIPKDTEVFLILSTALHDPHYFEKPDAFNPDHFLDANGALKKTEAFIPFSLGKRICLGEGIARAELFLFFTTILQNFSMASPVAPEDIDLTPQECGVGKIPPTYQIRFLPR
Sequence of CYP3A4 (midazolam/testosterone) (P08684 whole entry): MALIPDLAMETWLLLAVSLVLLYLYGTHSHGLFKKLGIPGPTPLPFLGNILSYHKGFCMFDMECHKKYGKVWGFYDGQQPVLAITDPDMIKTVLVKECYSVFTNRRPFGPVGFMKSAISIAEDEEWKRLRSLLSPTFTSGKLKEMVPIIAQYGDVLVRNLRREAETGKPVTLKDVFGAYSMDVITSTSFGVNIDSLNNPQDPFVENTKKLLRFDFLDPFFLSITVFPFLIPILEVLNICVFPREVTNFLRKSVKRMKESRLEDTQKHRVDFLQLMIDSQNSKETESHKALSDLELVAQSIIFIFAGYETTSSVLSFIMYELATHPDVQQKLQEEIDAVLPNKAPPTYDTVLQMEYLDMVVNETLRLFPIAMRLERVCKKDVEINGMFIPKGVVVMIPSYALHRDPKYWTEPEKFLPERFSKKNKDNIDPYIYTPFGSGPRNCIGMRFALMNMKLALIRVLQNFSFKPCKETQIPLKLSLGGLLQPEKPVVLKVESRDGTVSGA
Sequence of OATP1B3 (Q9NPD5 whole entry): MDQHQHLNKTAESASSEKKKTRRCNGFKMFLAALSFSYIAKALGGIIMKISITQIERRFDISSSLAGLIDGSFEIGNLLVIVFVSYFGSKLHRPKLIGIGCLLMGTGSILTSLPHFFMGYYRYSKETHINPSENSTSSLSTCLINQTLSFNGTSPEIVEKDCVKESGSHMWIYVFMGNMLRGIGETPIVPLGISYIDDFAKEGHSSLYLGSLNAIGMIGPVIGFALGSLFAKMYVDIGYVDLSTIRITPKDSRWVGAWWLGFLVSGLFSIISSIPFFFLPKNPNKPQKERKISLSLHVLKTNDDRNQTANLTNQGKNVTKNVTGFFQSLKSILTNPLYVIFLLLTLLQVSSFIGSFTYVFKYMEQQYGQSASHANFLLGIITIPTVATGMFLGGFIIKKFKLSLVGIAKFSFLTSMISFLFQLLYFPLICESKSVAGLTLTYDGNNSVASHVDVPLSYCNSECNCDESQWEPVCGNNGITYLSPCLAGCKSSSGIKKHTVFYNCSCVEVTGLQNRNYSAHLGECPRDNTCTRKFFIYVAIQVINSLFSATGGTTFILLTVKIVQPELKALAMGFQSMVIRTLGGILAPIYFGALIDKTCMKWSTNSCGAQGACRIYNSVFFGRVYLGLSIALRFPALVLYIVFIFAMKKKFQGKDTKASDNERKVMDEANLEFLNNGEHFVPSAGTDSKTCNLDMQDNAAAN
Sequence of Rock2 (O75116 whole entry, species assumed): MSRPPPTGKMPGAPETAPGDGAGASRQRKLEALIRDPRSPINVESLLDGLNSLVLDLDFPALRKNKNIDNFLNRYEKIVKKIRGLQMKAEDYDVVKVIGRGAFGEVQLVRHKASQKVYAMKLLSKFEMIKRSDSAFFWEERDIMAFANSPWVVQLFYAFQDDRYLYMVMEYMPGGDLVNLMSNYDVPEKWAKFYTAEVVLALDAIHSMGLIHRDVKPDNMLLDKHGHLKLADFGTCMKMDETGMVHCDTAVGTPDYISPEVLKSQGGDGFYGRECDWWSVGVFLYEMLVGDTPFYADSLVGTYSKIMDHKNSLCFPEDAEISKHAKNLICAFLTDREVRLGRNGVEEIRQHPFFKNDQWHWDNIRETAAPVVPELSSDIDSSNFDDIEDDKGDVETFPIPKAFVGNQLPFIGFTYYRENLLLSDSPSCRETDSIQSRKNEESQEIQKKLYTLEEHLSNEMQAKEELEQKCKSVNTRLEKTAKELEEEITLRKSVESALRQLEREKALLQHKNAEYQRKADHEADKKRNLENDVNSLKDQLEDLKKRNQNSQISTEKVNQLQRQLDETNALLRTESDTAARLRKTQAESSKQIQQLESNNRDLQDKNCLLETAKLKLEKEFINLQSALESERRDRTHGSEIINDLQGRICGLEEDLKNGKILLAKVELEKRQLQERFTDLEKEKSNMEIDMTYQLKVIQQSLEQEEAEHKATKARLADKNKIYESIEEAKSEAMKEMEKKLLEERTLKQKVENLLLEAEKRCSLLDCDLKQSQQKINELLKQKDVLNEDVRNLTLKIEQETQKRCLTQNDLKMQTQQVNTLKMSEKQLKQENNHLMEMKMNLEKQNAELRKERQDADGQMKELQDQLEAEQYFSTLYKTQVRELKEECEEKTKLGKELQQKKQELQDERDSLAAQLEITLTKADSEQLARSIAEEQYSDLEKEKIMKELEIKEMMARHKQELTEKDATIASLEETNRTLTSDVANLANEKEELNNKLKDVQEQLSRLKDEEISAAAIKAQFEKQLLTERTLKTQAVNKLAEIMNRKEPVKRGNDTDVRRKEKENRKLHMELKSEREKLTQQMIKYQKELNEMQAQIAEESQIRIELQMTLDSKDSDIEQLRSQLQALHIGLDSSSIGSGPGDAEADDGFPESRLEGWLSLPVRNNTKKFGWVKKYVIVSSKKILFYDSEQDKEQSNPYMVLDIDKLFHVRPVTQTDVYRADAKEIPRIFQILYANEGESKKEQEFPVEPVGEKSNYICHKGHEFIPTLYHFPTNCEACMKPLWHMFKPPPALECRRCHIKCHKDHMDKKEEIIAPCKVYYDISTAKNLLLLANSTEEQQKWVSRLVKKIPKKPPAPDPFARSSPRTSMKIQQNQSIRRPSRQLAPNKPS
Sequence of P-gp (P08183 whole entry): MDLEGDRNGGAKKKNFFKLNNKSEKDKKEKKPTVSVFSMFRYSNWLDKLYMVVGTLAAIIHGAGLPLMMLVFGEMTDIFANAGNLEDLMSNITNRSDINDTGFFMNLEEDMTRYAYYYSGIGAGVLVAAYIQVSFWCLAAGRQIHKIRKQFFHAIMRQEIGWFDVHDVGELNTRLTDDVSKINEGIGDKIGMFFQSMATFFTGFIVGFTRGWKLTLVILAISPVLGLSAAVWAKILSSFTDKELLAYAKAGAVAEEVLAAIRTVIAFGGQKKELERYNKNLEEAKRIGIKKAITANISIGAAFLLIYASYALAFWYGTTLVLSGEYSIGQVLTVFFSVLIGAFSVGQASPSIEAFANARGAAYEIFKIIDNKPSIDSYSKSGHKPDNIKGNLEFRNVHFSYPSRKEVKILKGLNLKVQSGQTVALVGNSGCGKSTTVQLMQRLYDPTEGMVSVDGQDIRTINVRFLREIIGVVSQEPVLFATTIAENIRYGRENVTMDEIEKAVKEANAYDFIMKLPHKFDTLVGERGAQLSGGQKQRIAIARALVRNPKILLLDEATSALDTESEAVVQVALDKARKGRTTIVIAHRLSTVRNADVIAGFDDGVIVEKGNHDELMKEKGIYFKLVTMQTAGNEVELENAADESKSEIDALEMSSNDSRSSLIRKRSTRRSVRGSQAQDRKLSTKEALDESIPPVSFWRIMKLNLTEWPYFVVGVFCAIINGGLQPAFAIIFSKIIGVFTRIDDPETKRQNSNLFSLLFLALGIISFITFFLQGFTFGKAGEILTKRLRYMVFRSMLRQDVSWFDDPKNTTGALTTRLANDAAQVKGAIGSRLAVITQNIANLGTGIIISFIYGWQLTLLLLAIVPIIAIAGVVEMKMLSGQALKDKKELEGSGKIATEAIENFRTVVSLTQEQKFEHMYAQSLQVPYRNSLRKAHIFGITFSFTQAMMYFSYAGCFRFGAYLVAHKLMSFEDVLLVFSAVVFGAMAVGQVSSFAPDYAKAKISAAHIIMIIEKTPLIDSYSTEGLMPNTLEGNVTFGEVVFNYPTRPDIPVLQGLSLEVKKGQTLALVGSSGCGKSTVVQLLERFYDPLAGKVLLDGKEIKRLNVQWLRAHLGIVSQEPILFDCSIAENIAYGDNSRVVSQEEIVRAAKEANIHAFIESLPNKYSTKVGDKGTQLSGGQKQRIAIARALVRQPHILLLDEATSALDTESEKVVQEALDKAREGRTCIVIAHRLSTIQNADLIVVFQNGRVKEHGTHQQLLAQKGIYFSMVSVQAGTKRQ

## CC[C@@H]1CN(C(=O)NCC(F)(F)F)C[C@@H]1c1cnc2cnc3[nH]ccc3n12 [Compound 1, (3S,4R)-3-ethyl-4-(3H-imidazo[1,2-a]pyrrolo[2,3-e]pyrazin-8-yl)-N-(2,2,2-trifluoroethyl)pyrrolidine-1-carboxamide]
[1]; human liver microsomes
  time-dependent inhibition of CYP3A4: No obvious time-dependent inhibition
[1]; up to 30 μM
  inhibition of CYP3A4 (midazolam/testosterone): did not inhibit; also recorded: not an inhibitor
[2]
  IC50: 430 nM
[3]
  inhibition of OCT2 uptake: No significant inhibition
[4]; human liver microsomes
  time-dependent inhibition of CYP2C8: No obvious time-dependent inhibition
[4]; up to 30 μM
  inhibition of CYP2C8: did not inhibit; also recorded: not an inhibitor
[5]; read-out: IL-6 (pSTAT3, CD14+)
  IC50: 17 nM
[5]; whole blood, read-out: IC50 IL-6 pSTAT3 CD14+
  IC50: 17 nM
[6]
  IC50: 348000 nM
[7]; IV 0.1 mg/kg single dose
  Vc: 1.2 L/kg
  Vβ: 2.2 L/kg
[7]; IV 1.0 mg/kg single dose
  Vc: 1.0 L/kg
  Vβ: 2.2 L/kg
[7]; oral 1 mg/kg single dose, mean (SD), 1 mg/kg
  F: 59.3% and 59.3 (18.1) %
[7]; oral 10 mg/kg single dose, mean (SD)
  F: 52.3 (12.4) %
[7]; plasma, IV 0.1 mg/kg single dose, mean (SD)
  AUC(0-inf): 72 ng·h/mL
[7]; plasma, IV 0.1 mg/kg single dose, mean (SD), read-out: CLp (converted)
  clearance: 23.3 mL/min/kg
[7]; plasma, IV 0.1 mg/kg single dose
  Vd: 1.9 L/kg
[7]; plasma, IV 0.1 mg/kg single dose, read-out: t1/2 (converted)
  half-life: 1.1 h
[7]; plasma, IV 1.0 mg/kg single dose, mean (SD)
  AUC(0-inf): 947 ng·h/mL
[7]; plasma, IV 1.0 mg/kg single dose, mean (SD), read-out: CLp (converted)
  clearance: 20 mL/min/kg
[7]; plasma, IV 1.0 mg/kg single dose
  Vd: 1.6 L/kg
[7]; plasma, IV 1.0 mg/kg single dose, read-out: t1/2 (converted)
  half-life: 1.3 h
[7]; plasma, IV, read-out: clearance (converted)
  clearance: 21.7 mL/min/kg
[7]; plasma, IV, read-out: plasma elimination t½ (converted)
  half-life: 1.2 h
[7]; [23]
  AUC(0-inf): 562 ng·h/mL
  Cmax: 134 ng/mL
[7]; [24]
  AUC(0-inf): 4950 ng·h/mL
  Cmax: 960 ng/mL
  Tmax: 4.3 h
[8]
  CLint scaled at 1 μM: 67.8 mL/min/kg
[9]
  NOAEL at 4 weeks: 50 mg/kg/day
[10]
  fraction unbound: 0.61
[11]; 2.5 and 10 mg/kg/day
  maternal and fetal examinations: no Compound 1-related effects
[11]; oral, GD 7-19
  NOEL: NOEL = 10 mg/kg/day
[12]
  mRNA expression of CYP1A2: did not increase
[13]; human liver microsomes
  time-dependent inhibition of CYP2B6: No obvious time-dependent inhibition
[13]; up to 30 μM
  inhibition of CYP2B6: did not inhibit; also recorded: not an inhibitor
[14]
  IC50: > 15000 nM
[15]; female, Sprague-Dawley, plasma, rat F, oral 10 mg/kg/day, Day 1, mean (SD)
  AUC: 1870 ng·h/mL
[15]; female, Sprague-Dawley, plasma, rat F, oral 10 mg/kg/day, Day 29, mean (SD)
  AUC at 29 days: 2280 ng·h/mL
[15]; female, Sprague-Dawley, plasma, rat F, oral 50 mg/kg/day, Day 1, mean (SD)
  AUC: 22400 ng·h/mL
[15]; female, Sprague-Dawley, plasma, rat F, oral 50 mg/kg/day, Day 29, mean (SD)
  AUC at 29 days: 33200 ng·h/mL
[15]; female, Sprague-Dawley, plasma, rat F, oral 100 mg/kg/day, Day 1, mean (SD)
  AUC: 54100 ng·h/mL
[15]; female, Sprague-Dawley, plasma, rat F, oral 100 mg/kg/day, Day 29, mean (SD)
  AUC at 29 days: 63800 ng·h/mL
[15]; female, Sprague-Dawley, plasma, rat F, oral 200 mg/kg/day, Day 1, mean (SD)
  AUC: 108000 ng·h/mL
[15]; female, Sprague-Dawley, rat, plasma, po, 10 mg/kg/day, rat F, oral 10 mg/kg/day, Day 1, mean (SD)
  Cmax: 468 ng/mL
[15]; female, Sprague-Dawley, rat, plasma, po, 10 mg/kg/day, rat F, oral 10 mg/kg/day, Day 29, mean (SD)
  Cmax at 29 days: 650 ng/mL
[15]; [25]
  Cmax: 5160 ng/mL
  Tmax: 2.2 h
[15]; female, Sprague-Dawley, rat, plasma, po, 100 mg/kg/day, rat F, oral 100 mg/kg/day, Day 1, mean (SD)
  Cmax: 13500 ng/mL
[15]; female, Sprague-Dawley, rat, plasma, po, 200 mg/kg/day, rat F, oral 200 mg/kg/day, Day 1, mean (SD)
  Cmax: 18200 ng/mL
[15]; male, Sprague-Dawley, plasma, rat M, oral 10 mg/kg/day, Day 1, mean (SD)
  AUC: 1390 ng·h/mL
[15]; male, Sprague-Dawley, plasma, rat M, oral 10 mg/kg/day, Day 29, mean (SD)
  AUC at 29 days: 1490 ng·h/mL
[15]; male, Sprague-Dawley, plasma, rat M, oral 50 mg/kg/day, Day 1, mean (SD)
  AUC: 15900 ng·h/mL
[15]; male, Sprague-Dawley, plasma, rat M, oral 50 mg/kg/day, Day 29, mean (SD)
  AUC at 29 days: 16800 ng·h/mL
[15]; male, Sprague-Dawley, plasma, rat M, oral 100 mg/kg/day, Day 1, mean (SD)
  AUC: 24900 ng·h/mL
[15]; male, Sprague-Dawley, plasma, rat M, oral 100 mg/kg/day, Day 29, mean (SD)
  AUC at 29 days: 40800 ng·h/mL
[15]; male, Sprague-Dawley, plasma, rat M, oral 200 mg/kg/day, Day 1, mean (SD)
  AUC: 50400 ng·h/mL
[15]; [26]
  Cmax: 224 ng/mL
  Tmax: 2.2 h
[15]; male, Sprague-Dawley, rat, plasma, po, 50 mg/kg/day, rat M, oral 50 mg/kg/day, Day 1, mean (SD)
  Cmax: 3030 ng/mL
[15]; [27]
  Cmax: 3910 ng/mL
  Tmax: 3.2 h
[15]; male, Sprague-Dawley, rat, plasma, po, 100 mg/kg/day, rat M, oral 100 mg/kg/day, Day 29, mean (SD)
  Tmax at 29 days: 3.2 h
[15]; male, Sprague-Dawley, rat, plasma, po, 200 mg/kg/day, rat M, oral 200 mg/kg/day, Day 1, mean (SD)
  Cmax: 7250 ng/mL
[15]; [28]
  half-life: 1 h
  Vd: 2.7 L/kg
[15]; [29]
  AUC(0-inf): 80 ng·h/mL
  clearance: 63.3 mL/min/kg
[15]; [30]
  half-life: 3 h
  Vd: 2.2 L/kg
[15]; [31]
  AUC(0-inf): 1550 ng·h/mL
  clearance: 33.3 mL/min/kg
[15]; plasma, rat, IV
  clearance: 33.3 to 63.3 mL/min/kg
[15]; plasma, rat, oral 3 mg/kg single dose
  half-life: 5.2 h
[15]; plasma, rat, oral 3 mg/kg single dose, mean (SD)
  AUC(0-inf): 472 ng·h/mL
[15]; rat, IV 0.3 mg/kg single dose
  Vc: 1.8 L/kg
  Vβ: 5.7 L/kg
[15]; rat, IV 3 mg/kg single dose
  Vc: 0.46 L/kg
  Vβ: 9.4 L/kg
[15]; rat, oral 3 mg/kg single dose, mean (SD), 3 mg/kg
  F: 30.5% and 30.5 (11.8) %
[15]; [32]
  Cmax: 95 ng/mL
  Tmax: 2.2 h
[16]; GD 6 to 17
  maternal clinical observations, body weights, food consumption, macroscopic examinations: No Compound 1-related effects
[16]; oral, GD 6-17
  NOEL: NOEL < 5 mg/kg/day
[17]; 10 μM
  CYP2B6 mRNA expression, % of the response of phenobarbital: 25%
[17]; 1 and 3 μM
  mRNA expression of CYP2B6: did not increase
[18]
  inhibition of OATP1B3 uptake: No significant inhibition
[19]
  inhibition of OCT1 uptake: No significant inhibition
[20]
  CLint scaled at 0.5 μM: 31.2 mL/min/kg
[21]
  IC50: 400 nM
[22]
  CLint scaled at 1 μM: 6.88 mL/min/kg
